pIC50: −log10 of the molar value.
How the values were obtained:
α-glucosidase = α-glucosidase (Saccharomyces cerevisiae, UniProt P53341); assay: In vitro α-glucosidase inhibitory assay; assay type: biochemical; details: for inhibition at 10 µM: read-out: %Inhibition at 10 µM; for inhibition at 40 µM: read-out: %Inhibition at 40 µM; for inhibition at 100 µM: read-out: %Inhibition at 100 µM; for inhibition at 140 µM: read-out: %Inhibition at 140 µM; for inhibition at 350 µM: read-out: %Inhibition at 350 µM; for inhibition at 400 µM: read-out: %Inhibition at 400 µM; for inhibition at 500 µM: read-out: %Inhibition at 500 µM
α-amylase = biological target: T1, α-amylase (Sus scrofa, UniProt P00690); assay: In vitro α-amylase inhibitory assay; assay type: biochemical, porcine; details: for inhibition at 10 µM: read-out: %Inhibition at 10 µM; for inhibition at 40 µM: read-out: %Inhibition at 40 µM; for inhibition at 80 µM: read-out: %Inhibition at 80 µM; for inhibition at 140 µM: read-out: %Inhibition at 140 µM; for inhibition at 260 µM: read-out: %Inhibition at 260 µM; for inhibition at 400 µM: read-out: %Inhibition at 400 µM; for inhibition at 500 µM: read-out: %Inhibition at 500 µM
T1 sequence (P00690 16-511): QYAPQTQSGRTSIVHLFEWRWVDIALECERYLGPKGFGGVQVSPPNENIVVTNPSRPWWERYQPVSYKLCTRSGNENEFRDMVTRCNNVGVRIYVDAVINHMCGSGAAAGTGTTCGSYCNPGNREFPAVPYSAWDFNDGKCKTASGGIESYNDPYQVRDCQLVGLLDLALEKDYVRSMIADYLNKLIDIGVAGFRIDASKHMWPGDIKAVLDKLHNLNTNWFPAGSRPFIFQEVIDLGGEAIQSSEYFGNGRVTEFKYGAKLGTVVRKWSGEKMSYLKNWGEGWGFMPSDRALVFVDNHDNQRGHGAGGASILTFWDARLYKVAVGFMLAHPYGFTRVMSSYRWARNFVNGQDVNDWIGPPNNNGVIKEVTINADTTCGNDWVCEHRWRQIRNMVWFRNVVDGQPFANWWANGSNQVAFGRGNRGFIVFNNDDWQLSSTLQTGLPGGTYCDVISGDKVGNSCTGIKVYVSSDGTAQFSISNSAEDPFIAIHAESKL

ct-DNA [1] = assay: Spectrophotometric; assay type: binding, calf; details: ligand fixed 50 µM, ct-DNA 0–80 µM, phosphate buffer pH 7.2
EB-ct-DNA = assay: Ethidium bromide displacement fluorescence quenching with ct-DNA; assay type: binding, calf
ct-DNA [2] = assay: Cyclic voltammetry of ligands with ct-DNA; assay type: binding, calf; details: increasing ct-DNA 10–80 µM, phosphate buffer pH 7.2

Sequence of α-glucosidase (P53341 whole entry): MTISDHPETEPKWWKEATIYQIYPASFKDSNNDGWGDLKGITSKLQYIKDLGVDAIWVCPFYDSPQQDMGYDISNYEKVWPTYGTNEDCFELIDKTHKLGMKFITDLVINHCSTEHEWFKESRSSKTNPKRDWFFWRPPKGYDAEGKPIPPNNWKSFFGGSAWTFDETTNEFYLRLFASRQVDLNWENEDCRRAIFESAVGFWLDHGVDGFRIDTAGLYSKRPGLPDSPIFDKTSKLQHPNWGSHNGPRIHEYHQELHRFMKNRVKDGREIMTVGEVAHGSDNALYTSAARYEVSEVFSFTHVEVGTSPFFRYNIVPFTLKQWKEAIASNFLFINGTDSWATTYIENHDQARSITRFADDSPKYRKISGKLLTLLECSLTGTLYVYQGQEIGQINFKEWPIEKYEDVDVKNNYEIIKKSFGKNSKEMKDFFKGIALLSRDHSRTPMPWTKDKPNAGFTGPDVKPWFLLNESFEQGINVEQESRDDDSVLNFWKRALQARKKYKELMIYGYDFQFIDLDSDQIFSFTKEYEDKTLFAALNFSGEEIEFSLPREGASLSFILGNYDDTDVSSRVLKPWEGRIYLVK

SMILES | inhibition at 10 µM (α-glucosidase) | inhibition at 40 µM (α-glucosidase) | inhibition at 100 µM (α-glucosidase) | inhibition at 140 µM (α-glucosidase) | inhibition at 350 µM (α-glucosidase) | inhibition at 400 µM (α-glucosidase) | inhibition at 500 µM (α-glucosidase) | inhibition at 10 µM (α-amylase) | inhibition at 40 µM (α-amylase) | inhibition at 80 µM (α-amylase) | inhibition at 140 µM (α-amylase) | inhibition at 260 µM (α-amylase) | inhibition at 400 µM (α-amylase) | inhibition at 500 µM (α-amylase) | pIC50 (α-glucosidase) | other results
C[C@H]1O[C@H](O[C@H]2[C@H](O)[C@@H](O)[C@@H](O[C@H]3[C@H](O)[C@@H](O)C(O)O[C@@H]3CO)O[C@@H]2CO)[C@H](O)[C@@H](O)[C@@H]1N[C@H]1C=C(CO)[C@@H](O)[C@H](O)[C@H]1O (stereo partly shown) [Acarbose, acarbose, reference compound] | 2.9% | 9.44% | 13% | 16.2% | 81.2% | 97.2% | 97.7% | 1.2% | 1.6% | 6% | 26.4% | 39.8% | 65.1% | 74.8% | – | –
Cc1cccc(C=CC(=O)c2cnn(-c3ccccc3)c2C)c1 [L^I, 1-(5-methyl-1-phenyl-1H-pyrazol-4-yl)-3-(m-tolyl)prop-2-en-1-one] | – | – | – | – | – | – | – | – | – | – | – | – | – | – | 3.40 | –
Cc1c(C(=O)C=Cc2ccc(Cl)cc2Cl)cnn1-c1ccccc1 [L^II, 3-(2,4-dichlorophenyl)-1-(5-methyl-1-phenyl-1H-pyrazol-4-yl)prop-2-en-1-one] | – | – | – | – | – | – | – | – | – | – | – | – | – | – | 3.67 | –
Cc1c(C(=O)C=Cc2cccc([N+](=O)[O-])c2)cnn1-c1ccccc1 [L^III, 1-(5-methyl-1-phenyl-1H-pyrazol-4-yl)-3-(3-nitrophenyl) prop-2-en-1-one] | 9.36% | 10.8% | 21.4% | 32.4% | 67% | 71.5% | 74.1% | 9.1% | 9.5% | 11% | 12% | 16.8% | 26% | 28.9% | 3.55 | pIC50 (α-amylase; IC50 α-amylase): 3.01; Binding constant (kb) (ct-DNA [1]): 15590 M⁻¹; Interaction mode (ct-DNA [1]): Intercalative; Quenching constant (Ksv) (EB-ct-DNA; Stern–Volmer): 3030 M⁻¹; Binding constant (Kb) (EB-ct-DNA; modified Stern–Volmer): 4315.8 M⁻¹; Binding mode from cyclic voltammetry (ct-DNA [2]): intercalation

Source: paper PMC12661293 (RSC Advances, 2025)
